From PubChem BioAssay AID1996
In brackets after ≈: the same amount, converted by molar mass.

conditions: buffer; pH 7.4; 200.0 µM

Structure (SMILES) | solubility kinetic [µg/mL]
CCCCC(CC)CNC(=O)C(=O)C1C(=O)Nc2ccccc21 (centres undefined) | 26.1 (≈ 82.5 µM)
CC(NC(=O)N1CCOCC1)c1ccccc1 (centres undefined) | > 35.1
N#Cc1ccc(N2CCN(C(=O)c3cccs3)CC2)c(F)c1 | 40.1 (≈ 127 µM)
COc1ccc(CNCC(O)COc2ccc(C)cc2[N+](=O)[O-])cc1 (centres undefined) | > 52
COc1ccc(CC(=O)Nc2cccc3ncccc23)cc1OC | > 48.4
O=C(NCCCn1ccnc1)c1cc2ccccc2o1 | > 40.4
Cc1ccc(NC2=CC(=O)CC(C)(C)C2)cc1F | 31.5 (≈ 127 µM)
CCc1ccc2c(CN3CCOCC3)cc(=O)oc2c1 | > 41
N#CC1=C(N)Oc2cc(N)ccc2C1c1ccc(F)cc1F (centres undefined) | > 44.9
O=C(O)CC(CC(=O)N1CCOCC1)c1ccccc1 (centres undefined) | > 41.6
Cc1ccccc1CN1CCN(CC(=O)NCc2ccccc2)CC1 | > 50.6
O=C(NC1CCCCC1)Oc1cc2oc(=O)sc2cc1Br | 10.2 (≈ 27.4 µM)
CCc1cccc(CC)c1N(COC)C(=O)Cn1cnc2ccccc21 | > 52.7
CC1SCC(=NOCc2ccccc2)CS1 (centres undefined) | 11.5 (≈ 45.4 µM)
CN(CC1CCCN(CCc2ccc(F)cc2)C1)C(=O)CCC(F)(F)F (centres undefined) | 48.5 (≈ 130 µM)
O=C(CSc1nc(C(F)(F)F)cc(=O)[nH]1)N1CCCC1 | > 46.1
COc1ccc(S(=O)(=O)NC2CCCC2)cc1C(N)=O | > 44.8
CCN1CCN(Cc2cc(=O)oc3ccc(C)cc23)CC1 | > 43
Cc1ccc(C(C)NC(=S)NCc2ccc(F)cc2)cc1C (centres undefined) | 6.2 (≈ 19.6 µM)
CN(C)c1ccc(C2CC(=O)C=C(Nc3ccccc3N)C2)cc1 (centres undefined) | 48.2 (≈ 150 µM)

Structure (SMILES) | solubility kinetic [µg/mL]
NC(=O)c1cc(S(=O)(=O)N2CCc3ccccc3C2)cs1 | 2 (≈ 6.2 µM)
CCOC(=O)Cc1csc(SCC(=O)N2CCN(c3ccccc3)CC2)n1 | > 60.8
Cl.Fc1ccc(Nc2ncnc3ccccc23)cc1 | 36.8
O=C(Nc1ccccc1F)c1ccc2ncsc2c1 | > 40.8
CC1(C)C2CCC(C2)C1(C)N=C1OC(CCl)CS1 (centres undefined) | 5.9 (≈ 20.5 µM)
Nc1cc(Oc2ccc(Cl)cc2Cl)nc(N)n1 | 39.5 (≈ 146 µM)
O=C(NC(=S)Nc1ccc2c(c1)OCCO2)c1ccco1 | 40.3 (≈ 132 µM)
Cc1ccc2c(c1)N(CC(=O)N1CCOCC1)C(=O)CO2 | > 43.5
Cc1ccc(CNC2CCCCC2)s1.Cl | > 36.9
Cc1ccc(S(=O)(=O)N(C)c2ccc(OC(=O)COc3ccccc3)cc2)cc1 | 18.7 (≈ 45.4 µM)
COc1ccc(C(=O)O)cc1S(=O)(=O)NCc1ccccn1 | > 48.4
Cc1c(C)n(CC(O)CN(CCO)CCO)c2ccccc12.Cl (centres undefined) | > 51.4
CC(C)(C)OC(=O)C(C)(C)O/N=C(\C(=O)O)c1csc(N)n1 | > 49.4
O=S(=O)(Cc1ccccc1)Nc1ccccc1 | > 37.1
COc1ccc(S(=O)(=O)N2CCOCC2)cc1NC(=O)COC(=O)c1ccc([N+](=O)[O-])s1 | 14 (≈ 28.8 µM)
Cc1ccc(S(=O)(=O)NC(=O)Nc2cc(C)no2)cc1 | > 44.3
Cc1cc(OC(C)C(=O)Nc2cccnc2)ccc1Cl (centres undefined) | 35.8 (≈ 123 µM)
O=C(NCc1cccnc1)Nc1cccc([N+](=O)[O-])c1 | > 40.8
O=c1[nH]cnc2c1C(c1ccccc1)c1c(nc[nH]c1=O)O2 | > 44.1
CCn1c(/C=C/c2ccccc2C)nc2ccccc2c1=O | 3.3 (≈ 11.4 µM)

Structure (SMILES) | solubility kinetic [µg/mL]
Cc1ccnc(NC(=O)Cn2c(=O)oc3ccccc32)c1 | 10.9 (≈ 38.5 µM)
O=C(Nc1cc(S(=O)(=O)N2CCOCC2)ccc1O)c1ccc(S(=O)(=O)N2CCCCC2)cc1 | 4.8 (≈ 9.42 µM)
COCCN=C(NS(=O)(=O)c1cccs1)c1ccccc1Cl | > 53.8
CC(=O)Nc1ccccc1C(=O)C(=O)Nc1cccc(Br)c1 | 29.1 (≈ 80.6 µM)
O=C(NC(=S)NC1CCS(=O)(=O)C1)c1ccccc1F (centres undefined) | 44.9 (≈ 142 µM)
CC1CC(C)CN(C(=O)COC(=O)c2ccc(N3CCCC3=O)cc2)C1 (centres undefined) | > 53.8
Nc1cc(Cl)ccc1C(=O)OCC(=O)N1CCOCC1 | > 44.8
Cc1cccnc1Nc1nc(-c2ccccc2)cs1 | 7.6 (≈ 28.4 µM)
Cc1cc(C)c(S(=O)(=O)c2cc(F)ccc2C)c(=O)[nH]1 | 13.3 (≈ 45 µM)
O=c1oc(-c2cccc([N+](=O)[O-])c2)nc2ccccc12 | 3.2 (≈ 11.9 µM)
COc1ccccc1NC(=O)COC(=O)C12CC3CC(CC(Br)(C3)C1)C2 | 5.5 (≈ 13 µM)
CC(C)Cn1c(N)c(C=O)c(=O)n(C)c1=O | > 33.8
Clc1ccccc1C1NCc2ccccc2-n2cccc21 (centres undefined) | 1.4 (≈ 4.75 µM)
OC1CCN(Cc2cccc3ccccc23)CC1 | 29.3 (≈ 121 µM)
Cl.OC(CNCc1ccc(Cl)c(Cl)c1)c1ccccc1 (centres undefined) | 47.7
CNC(=S)N(CCc1c(C)[nH]c2ccc(F)cc12)Cc1ccco1 | 3 (≈ 8.68 µM)
COc1ccc(OC(C)C(=O)NC2CCCCCC2)cc1 (centres undefined) | 40 (≈ 137 µM)
CCOc1cc(/C=C2\SC(=O)N(c3ccc(O)cc3)C2=O)ccc1O | 4 (≈ 11.2 µM)
O=C(COC(=O)CNC(=O)c1ccccc1F)Nc1ccc(Cl)cn1 | 22.2 (≈ 60.7 µM)
